Legend:
[1] = test system: nonsense mutation in CFTR; details: cell line carrying a nonsense mutation in CFTR; cited from earlier work
UAA stop codon = assay: FACS detection of membrane-anchored FVII (FVII-UAA-GPI) in transfected CHO-K1 cells without antibiotic resistance gene; assay type: cell-based, Chinese hamster (CHO-K1 cells)
Procedure: The resulting PCR product encompassed the CMV promoter, the b-globin intron, the FVII gene, the UAA stop codon, the GPI anchor signal and the b-globin poly-adenylation signal (FIG. 11). The PCR product was purified and subsequently used to transfect CHO-Kcells with Lipofectamine™ 2000 (Invitrogen) as described above. Additionally, a flask containing CHO-K1 cells was incubated with Lipofectamine™ 2000 but without DNA as a negative control. Five hours after transfection, G-418 was added to the two culture flasks at a final concentration of 100 mg/L to promote translational readthrough. […] Labeled retroviral cell lines were analyzed by FACS for membrane-anchored recombinant FVII using a FACSVantage™ (Becton Dickinson) instrument with an excitation wave length of 488 nm and an emission filter of 585 nm.
Because expression of the recombinant FVII protein is correlated with expression of the FVII-GPI protein fusion arising from aminoglycoside-mediated translational readthrough, transgenic cells can be selected by means of FACS based on membrane-anchored FVII detection. […] Approximately 2500 cells from gate R3 of the transfected cells were sorted as a pool and grown for 9 days in the absence of antibiotic, after which translational readthrough was induced by treating the cells with G-418 at 100 mg/L for 2 days. […]

[2] = test system: UGA stop codon (UGAC tetranucleotide); assay: FACS analysis of membrane-anchored protein C after G-418-induced readthrough, PC-UGAC-GPI construct; assay type: cell-based, Chinese hamster (CHO-K1 cells); details: with G-418, background in absence of G-418 about 13%
Procedure: (§1) As a control, the retroviral vector pLenti6-PC-GPI was used to transfect HEK293FT cells and produce retrovirus particles. After 48 hours, supernatants containing retroviral particles were harvested, filter-sterilized to remove cell debris, and subsequently used to infect CHO-K1 cells. CHO-K1 cells were selected for resistance to the Blasticidin antibiotic at the concentration of 5 mg/l for 10 days. The resulting pools of Blasticidin-resistant cells were transferred into 6 culture flasks for each cell pool and grown to 25% confluency. To induce translational readthrough, the antibiotic G-418 was added to the culture flasks at final concentrations ranging from 12.5 mg/l to 100 mg/l and flasks were incubated for another 48 hours at 37° C. […] Labeled retroviral cell lines were analyzed by FACS for membrane-anchored recombinant PC using a FACScalibur™ (Becton Dickinson) instrument with an excitation wave length of 488 nm and an emission filter of 585 nm.
(§2) The results shown in FIG. 4 illustrate that both cell lines expressing the PC-UAAC-GPI and PC-UGAC-GPI reporters display PC at the cell surface in the presence of aminoglycoside. […] Furthermore, the amount of recombinant membrane-anchored PC is more abundant for the PC-UGAC-GPI construct than for the PC-UAAC-GPI construct, and this applies to all aminoglycoside concentrations that were assessed.

[3] = test system: UAA stop codon (UAAC tetranucleotide); assay: FACS analysis of membrane-anchored protein C after G-418-induced readthrough, PC-UAAC-GPI construct; assay type: cell-based, Chinese hamster (CHO-K1 cells); details: with G-418, background in absence of G-418 about 0.5%
Procedure: as §1, §2

premature UAG mutation = details: cultured mammalian cells; cited from earlier work

## gentamicin
[1]
  expression of CFTR protein: restore the expression

## CN[C@@H]1[C@@H](O)[C@@H](O[C@@H]2[C@@H](O)[C@H](O[C@H]3O[C@H]([C@@H](C)O)[C@@H](O)[C@H](O)[C@H]3N)[C@@H](N)C[C@H]2N)OC[C@]1(C)O [G-418]
UAA stop codon; G-418 100 mg/L for 2 days after 9 days growth, non-transfected control 1.1%, FIG. 13
  cells positive for FVII display, second FACS round: 3.4%
UAA stop codon; G-418 100 mg/L, negative control 0.4%, FIG. 12
  transfected CHO-K1 cells exhibiting fluorescence signals (gate R3), first FACS round: 7.1%
[2]
  FACS-positive cells (up to): about 25%
[3]
  FACS-positive cells (up to): about 10%

## NC[C@@H]1O[C@H](O[C@H]2[C@@H](O)[C@H](O[C@@H]3[C@@H](O)[C@H](N)C[C@H](N)[C@H]3O[C@H]3O[C@H](CO)[C@@H](O)[C@H](O)[C@H]3N)O[C@@H]2CO)[C@H](N)[C@@H](O)[C@@H]1O [paromomycin]
Premature UAG mutation
  synthesis of full-size protein from mutant gene: partially restore the synthesis of a full-size protein

— patent US20070224635A1, “Regulated Stop Codon Readthrough” (Maxygen Holdings, Ltd., priority 2004, published 2007)
